The subject of assay [1] is Jurkat FADD−/− cells. As to the kind of experiment: Jurkat FADD−/− necroptosis assay. In kind it is cell-based. The following applies: Homo sapiens, 10 ng/mL huTNFα, 24 h, Cell Titer Glo viability, read-out: Jurkat NEC IC50. As to the method:
(§1) For the Jurkat FADD^−/− Necroptosis assay, compounds were serially diluted in 100% dimethyl sulfoxide (DMSO) (Sigma-Aldrich catalog no. 41641), and 250 nL was transferred to a sterile 384-well microtiter plate (PerkinElmer catalog no. 6007688) via Echo liquid handler (LABCYTE). Five thousand Jurkat FADD ^−/− cells (ATCC catalog no. CRL-2572) in 20 µL of modified Roswell Park Memorial Institute medium (Gibco catalog no. 10491), 10% fetal calf serum (Gibco catalog no. 100500), 1x Anti/Anti (Gibco catalog no. 15240-062), 1x L-Glutamax (Gibco catalog no. 35050-087), and 1% PenStrep (SIGMA catalog no. P4333) were seeded into each well of the prepared assay plate with compound. Cells and compounds were incubated for 30 min at 37 °C (humidified incubator with 5% CO2). After incubation, 5 µL of recombinant human TNFα (huTNFα) (Biotrend catalog no. cyt-223; 10 ng/mL final concentration [f.c.]) was added to the cells, followed by an incubation of 24 h at 37 °C. Following the incubation, the experimental plates were equilibrated to room temperature (30 min) before 25 µL of Cell Titer Glo Luminescent Cell Viability Assay System reagent (Promega catalog no. G7571) was added to the plate wells, incubated at room temperature for ∼10 min. After incubation, the samples were analyzed for luminescence by using an Envision reader (PerkinElmer).
(§2) Each assay plate contained wells with “high” and “low” controls. High controls (100% CTL) were defined as cells treated with DMSO, and low controls (0% CTL) were defined as cells treated with 10 ng/mL recombinant huTNFα. IC50 values were calculated based on the percentage of control values using a four-parameter-fitting model.
(§3) All cellular assays were done for Cpd 1, Cpd 2, Cpd 3, Cpd 4, and Cpd 5 in duplicate and in quadruplet for NSA.
(In general: Cellular ATP, detected with luciferase, serves as a proxy for viable cell number.)

The test system of the next assay is C86S-mutated MLKL. The following applies: cited from earlier work.
For assay [2], the system named is U937 cells. As to the kind of experiment: U937 cytotox assay. In kind it is cell-based. As to conditions: Homo sapiens, U-937, without huTNFα and zVAD-fmk, read-out: U937 TOX IC50. As to the method: (§4) MLKL antagonists were also evaluated in a necroptosis assay with U937 cells ([26]) (ATCC catalog no. CRL-1593.2). The assay procedure with U937 cells was as described for the Jurakt FADD^−/− necroptosis assay with the following modifications: 8,000 cells were seeded per well, and, in addition to the recombinant huTNFα, cells were also incubated in the presence of 10 µM (f.c.) carbobenzoxy-valyl-alanyl-aspartyl-[O-methyl]-fluoromethylketone (zVAD-fmk) (Enzo Life Sciences catalog no. ALX-260-020). Low controls (0% CTL) were defined as cells treated with 100 ng/mL recombinant huTNFα plus 10 µM zVAD-fmk.
(§5) MLKL antagonists were tested in cytotox assays by using Jurkat FADD^−/− and U937 cells according to the assay procedures described for the necroptosis assays, but without treatment with recombinant huTNFα and/or zVAD-fmk. High controls (100% CTL, no effect) were defined as cells treated with DMSO, and low controls (0% CTL) were defined as medium without cells (0% CTL, maximal effect).
as §3

In assay [3] the test system is U937 cells. As to the kind of experiment: U937 apoptosis assay. In kind it is cell-based. As to conditions: Homo sapiens, U-937, 100 ng/mL huTNFα plus 3 µM NSA, read-out: U937 APOP IC50. As to the method: as §4
Furthermore, MLKL antagonists were tested in a U937 apoptosis assay in the presence of 3 µM (f.c.) NSA (Tocris catalog no. 5025) and 100 ng/mL (f.c.) recombinant huTNFα in the same way as described for the U937 necroptosis assay. Low controls (0% CTL) were defined as cells treated with 100 ng/mL recombinant huTNFα plus 3 µM NSA.
as §3

The test system of assay [4] is U937 cells. As to the kind of experiment: U937 necroptosis assay. In kind it is cell-based. The following applies: Homo sapiens, U-937, huTNFα plus 10 µM zVAD-fmk, read-out: U937 NEC IC50. As to the method:
as §1, §2, §4, §3

The subject of assay [5] is Jurkat FADD−/− cells. As to the kind of experiment: Jurkat FADD−/− cytotox assay. In kind it is cell-based. The following applies: Homo sapiens, without huTNFα, Cell Titer Glo viability, read-out: Jurkat TOX IC50. As to the method: as §1, §5, §3
Assay [6] deals with T1, human MLKL executioner domain (WT) (Homo sapiens, UniProt Q8NB16).
T1 construct: 80 µM MLKL N-terminal executioner domain (residues 1 to 154) was used; GST (thrombin cleavage site) (cleaved yes)
T1 sequence (Q8NB16 1-154): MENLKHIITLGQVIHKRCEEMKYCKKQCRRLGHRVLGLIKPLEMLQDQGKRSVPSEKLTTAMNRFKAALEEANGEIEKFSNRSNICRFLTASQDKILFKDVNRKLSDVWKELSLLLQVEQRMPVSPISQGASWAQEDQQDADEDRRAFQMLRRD
As to the kind of experiment: Functional NMR assay (detachment of α-helix 6), WT. In kind it is biochemical. As to conditions: for Inhibitory effect on MLKL activation (α-helix 6 detachment), in words: 12 mM NM + 500 µM IP6 + 500 µM xanthine compound, compared with Cpd 3 (Fig. 3C); for Population of the activated state (pact), α-helix 6 detached: 12 mM NM alone or 500 µM IP6 alone. From the text:
To test the significance of the additional interaction between α-helix 6 and the four-helix bundle provided by the xanthine compounds stacking to the phenyl ring of Phe148, we used a described functional NMR assay ([12]). Binding of phytic acid (IP6) and the detergent β-D-nonylmaltoside (NM) led to the detachment of α-helix 6, which can be monitored in ^1H,^15N-correlation spectra by the altered chemical shift of the Hε1–Nε1 correlation of Trp133 and the backbone N–H correlation of Ala141 ([12]). […] Adding 12 mM NM or 500 µM IP6 led to the appearance of a second very weak peak reporting on the detached α-helix 6 with a population of the activated state (pact) of 1% and 4%, respectively (Fig. 3). […] Combining 12 mM NM and 500 µM IP6 induced a dramatic increase of the population of the detached state (pact 86%). […] To further validate the importance of the π–π stacking interaction between the xanthine and Phe148 in α-helix 6, we carried out the functional NMR assay with the F148A-mutated variant of MLKL. The removal of the phenyl group induced significant CSPs localized in close proximity to the mutation site, due to the removal of ring currents and, therefore, strong electronic changes. […] MLKL F148A was more sensitive to the addition of 12 mM NM, 500 µM IP6, or the combination thereof. In the spectra in the presence of NM and the combination of NM and IP6, a third Trp133 peak appeared, most likely reporting on a state similar to the active state. […] Thus, the stacking interaction of the xanthine core to Phe148 is vital for the inhibitory activity of these MLKL inhibitors.
Fig. 3. (A and B) The region of the NMR ^1H,^15N-correlation spectra of the MLKL executioner domain (protein concentration: 80 µM) containing the cross-peaks of Trp133 Nε1–Hε1 in the auto-inhibited state where α-helix 6 is attached to the four-helix bundle (inact. state) and in the active, detached state (act. state) are shown. The unliganded state is depicted in black, with 12 mM NM in cyan; 500 µM IP6 in orange; 500 µM Cpd 3 in blue; 12 mM NM and 500 µM IP6 in red; and 12 mM NM, 500 µM IP6, and 500 µM Cpd 3 in green. The spectra depicted in A are measured with the WT protein and in B with the F148A variant. […] Dark gray bars correspond to the WT, while light gray bars correspond to the F148A variant. The asterisk means that no active conformation could be detected. Double asterisks indicate data not determined.
For the functional NMR assay ^1H,^15N-correlation spectra were recorded on a Bruker Avance III HD 600-MHz NMR spectrometer equipped with a cryogenic QCI probe in 2.5-mm NMR tubes at 298 K. Spectra were recorded with 64 complex points in the indirect dimension, 96 scans, and an interscan delay of 2 s. For the samples, 80 µM MLKL N-terminal executioner domain (residues 1 to 154) was used in a 20 mM sodium phosphate buffer at pH 7.5 containing 150 mM sodium chloride and 1 mM TCEP. For the different conditions, either 500 µM IP6, 12 mM NM, or a combination of the two were used. The xanthine compounds were tested at 500 µM, while NSA, due to limited solubility, was tested only at 200 µM, which is sufficient to saturate MLKL. Spectra were analyzed, and peaks were integrated in CcpNnmr analysis ([39]).

By IC50 is commonly meant the midpoint of a concentration-inhibition curve.

Each structure is given as a SMILES string.

As for `Cn1c(=O)c2c(nc(S(C)(=O)=O)n2C)n(C)c1=O` [Cpd 1], the IC50 with Jurkat FADD−/− cells [1] was 0.574 µM; in the assay on U937 cells [2], greater than 100 µM; in the assay with U937 cells [3] it was greater than 100 µM; in the assay on U937 cells [4], 0.312 µM; in the assay on Jurkat FADD−/− cells [5] it was 56.3 µM. Moreover, the “Activity in MLKL knockout cells transfected with C86S-mutated MLKL” value in the assay on C86S-mutated MLKL is given as “hampered”. Further, in assay [6] (WT), the “Inhibitory effect on MLKL activation (α-helix 6 detachment), in words” value (“Inhibitory effect on MLKL activation” below) is “even less activated”.
Turning to `COCCOCn1c(S(C)(=O)=O)nc2c1c(=O)n(C)c(=O)n2C` [Cpd 2], the IC50 is 0.069 µM in the assay on Jurkat FADD−/− cells [1]; 4.38 µM in the assay with U937 cells [2]; greater than 100 µM with U937 cells [3]; 0.042 µM in the assay on U937 cells [4]; 3.83 µM with Jurkat FADD−/− cells [5]. For the same compound, in the assay with C86S-mutated MLKL, the “Activity in MLKL knockout cells transfected with C86S-mutated MLKL” value is recorded as “hampered”. In addition, the “Inhibitory effect on MLKL activation” value in assay [6] (WT) is “even less activated”.
As to `Cn1c(=O)c2c(nc([S+](C)[O-])n2C)n(C)c1=O` (centres unmarked) [Cpd 4], the half-inhibitory concentration (IC50) is 5.24 µM in the assay with Jurkat FADD−/− cells [1]; greater than 100 µM in the assay with U937 cells [2]; greater than 100 µM with U937 cells [3]; 3.17 µM in the assay on U937 cells [4]; greater than 100 µM with Jurkat FADD−/− cells [5]. Further, in assay [6] (WT), the “Inhibitory effect on MLKL activation” value is “significantly reduced”.
For `CSc1nc2c(c(=O)n(C)c(=O)n2C)n1C` [Cpd 5], the half-maximal inhibitory concentration (IC50) with Jurkat FADD−/− cells [1], with U937 cells [2], in the assay on U937 cells [3], in the assay with U937 cells [4] and in the assay on Jurkat FADD−/− cells [5] was greater than 100 µM throughout. The “Inhibitory effect on MLKL activation” value in assay [6] (WT) is reported as “abolished”.
As to `O=P(O)(O)O[C@H]1[C@H](OP(=O)(O)O)[C@@H](OP(=O)(O)O)[C@H](OP(=O)(O)O)[C@@H](OP(=O)(O)O)[C@H]1OP(=O)(O)O` [IP6, phytic acid], the “Population of the activated state (pact), α-helix 6 detached” value in assay [6] (WT) is given as 4%.
Same read-out and setting: as for `CCCCCCCCCO[C@@H]1O[C@H](CO)[C@@H](O[C@H]2O[C@H](CO)[C@@H](O)[C@H](O)[C@H]2O)[C@H](O)[C@H]1O` [NM, β-D-nonylmaltoside], the figure is 1%.
`COc1nccnc1NS(=O)(=O)c1ccc(NC(=O)/C=C/c2ccc([N+](=O)[O-])s2)cc1` [NSA, Necrosulfonamide]: the half-maximal inhibitory concentration (IC50) with Jurkat FADD−/− cells [1] is 1.4 µM; in the assay on U937 cells [2] it was 14.7 µM; in the assay with U937 cells [3] it was greater than 100 µM; in the assay on U937 cells [4], 0.454 µM; with Jurkat FADD−/− cells [5], 6.2 µM. Further, the “Effect on α-helix 6 detachment, in words” value in assay [6] (WT MLKL:NSA complex (200 µM NSA), addition of 12 mM NM and 500 µM IP6) was “complete population shift to the active α-helix detached state”. The “Induction of the active state by compound alone” value in assay [6] (WT, compound alone (Cpd 3 500 µM, NSA 200 µM), no NM/IP6) is given as “α-helix 6 remains in the attached auto-inhibitory state”.

Values taken from article PMC7777204, “Locking mixed-lineage kinase domain-like protein in its auto-inhibited state prevents necroptosis” (Proceedings of the National Academy of Sciences of the …, 2020).
